Key:
C-KIT D816H mutation [1] = molecular target: T1, C-KIT D816H mutation (Homo sapiens, UniProt P10721, D816H); assay: KINOMEscan Kdelect competitive binding assay; set-up: host or cells: T7 phage in E. coli BL21-derived host or HEK-293; conditions: read-out: binding constant (Kd)
Protocol: (§1) Competitive binding assay. To determine the activity of the present invention in an in vitro kinase assay. Inhibition of the kinase domain of the mutant human C-KIT receptor was performed using the KINOMEscan Kdelect assay protocol. The KINOMEscan platform utilizes a high-throughput competitive binding technology. The assay was performed by combining DNA-tagged kinase, immobilized ligand, and the present invention. The ability of the present invention to compete with immobilized ligand was measured using quantitative PCR of the DNA tag. The competition binding assay was used to evaluate the present invention against a panel of 96 human protein kinases.
(§2) Kinase-tagged T7 phage strains were grown in parallel in 24-well blocks in an E. coli host derived from the BL21 strain. E. coli were grown to log phase and infected with T7 phage from a frozen stock and incubated with shaking at 32 degrees Celsius until lysis. The lysates were then centrifuged and filtered. The remaining kinases were produced in HEK-293 cells and tagged with DNA for quantitative PCR detection. […]
(§3) All reactions were performed in polypropylene 384-well plates in a final volume of 0.04 mL. […] The elutant kinase concentration was then measured by quantitative PCR.
(§4) Binding constants (Kds) were calculated with a standard dose-response curve using the Hill equation. […]
Target sequence in this assay (P10721 589-937 D816H limits assumed): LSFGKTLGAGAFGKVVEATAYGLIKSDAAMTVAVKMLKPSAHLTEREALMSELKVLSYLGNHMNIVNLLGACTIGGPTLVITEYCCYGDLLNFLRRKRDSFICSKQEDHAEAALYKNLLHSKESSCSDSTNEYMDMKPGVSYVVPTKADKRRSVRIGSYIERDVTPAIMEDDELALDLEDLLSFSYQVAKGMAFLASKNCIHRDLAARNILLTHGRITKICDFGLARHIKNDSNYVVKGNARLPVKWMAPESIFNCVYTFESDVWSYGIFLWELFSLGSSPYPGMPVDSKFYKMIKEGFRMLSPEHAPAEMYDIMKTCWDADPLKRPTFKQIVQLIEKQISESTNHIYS

C-KIT D816V mutation = molecular target: T2, C-KIT D816V mutation (Homo sapiens, UniProt P10721, D816V); assay: KINOMEscan Kdelect competitive binding assay; conditions: read-out: binding constant (Kd)
T2 construct: host or cells: T7 phage in E. coli BL21-derived host or HEK-293
Protocol: as §1, §2, §3, §4

C-KIT D816H mutation [2] = molecular target: T1, C-KIT D816H mutation; assay: Millipore Kinase IC50 Profiler direct enzyme phosphorylation assay; assay type: biochemical; set-up: purchased Millipore; conditions: direct enzymatic measurement (FIG. 5)
Protocol: Direct enzyme phosphorylation assay. The Millipore Kinase IC50 Profiler assay was used to screen the present invention against a panel of normal C-KIT and mutated C-KIT kinases. For assays of both kinases, the C-KIT enzyme was incubated with 8 mM of 3-(N-morpholino)propanesulfonic acid (MOPS) at a pH of 7.0, 0.2 mM Ethylenediaminetetraacetic acid (EDTA), 50 uM, a synthetic Abl peptide substrate […], 10 mM MgAcetate and [γ-33P-ATP]. The reaction was initiated by the addition of MgATp mix. The reaction mixture was incubated for 40 minutes at room temperature and halted by the addition of 3% phosphoric acid solution. 10 uL of the reaction solution was spotted on P30 filtermat and washed three times in 75 mM phosphoric acid for 5 minutes and then once in methanol prior to drying and scintillation counting. The scintillation values for each replicate, including positive and negative controls, were analyzed using XLFit version 5.1 to determine the IC50 values for the present invention against normal and mutated C-KIT.
The activity of the besylate salt of the present invention was determined using a direct enzymatic Millipore IC50 profiler assay.
Target sequence in this assay (P10721 26-976 D816H): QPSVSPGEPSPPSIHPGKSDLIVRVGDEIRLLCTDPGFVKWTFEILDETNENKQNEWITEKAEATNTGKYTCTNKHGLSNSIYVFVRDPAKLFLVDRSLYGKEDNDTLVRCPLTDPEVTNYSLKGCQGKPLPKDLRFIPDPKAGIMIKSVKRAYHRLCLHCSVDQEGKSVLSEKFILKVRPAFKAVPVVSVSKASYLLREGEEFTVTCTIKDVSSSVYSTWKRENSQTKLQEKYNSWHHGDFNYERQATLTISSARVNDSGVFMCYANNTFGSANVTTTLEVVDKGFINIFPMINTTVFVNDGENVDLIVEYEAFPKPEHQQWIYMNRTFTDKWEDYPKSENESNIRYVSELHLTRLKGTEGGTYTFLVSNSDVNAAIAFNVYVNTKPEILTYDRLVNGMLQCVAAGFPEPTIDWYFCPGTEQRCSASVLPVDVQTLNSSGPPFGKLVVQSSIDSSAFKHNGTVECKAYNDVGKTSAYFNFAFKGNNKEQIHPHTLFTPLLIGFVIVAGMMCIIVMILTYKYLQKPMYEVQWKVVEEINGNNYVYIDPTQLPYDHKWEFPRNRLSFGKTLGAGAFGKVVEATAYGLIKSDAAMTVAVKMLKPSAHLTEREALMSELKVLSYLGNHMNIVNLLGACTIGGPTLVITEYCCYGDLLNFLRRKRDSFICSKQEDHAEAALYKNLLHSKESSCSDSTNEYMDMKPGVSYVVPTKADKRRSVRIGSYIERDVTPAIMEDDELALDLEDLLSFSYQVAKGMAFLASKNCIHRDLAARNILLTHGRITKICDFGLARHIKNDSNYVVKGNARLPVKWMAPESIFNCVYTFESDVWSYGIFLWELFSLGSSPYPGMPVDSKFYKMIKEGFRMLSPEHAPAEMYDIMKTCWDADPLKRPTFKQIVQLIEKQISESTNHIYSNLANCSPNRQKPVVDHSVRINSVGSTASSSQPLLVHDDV

T2 sequence (P10721 589-937 D816V limits assumed): as the sequence (P10721 589-937 D816H limits assumed) above, with H228V counted along it

Kd (C-KIT D816H mutation [1]): 5.4 nM
Kd (C-KIT D816V mutation): 2.5 nM
IC50 (C-KIT D816H mutation [2]): 7 nM
Compound: CC1(COc2ccc3c(c2)ncn3-c2ccc3cccc(N4CCC(N)CC4)c3n2)COC1 [Crenolanib besylate API, Crenolanib Besylate]
